The target of the assay is T1, TNF-α (Homo sapiens, UniProt P01375).
T1 construct: purchased R&D 210-TA-020/CF
The experiment in a line: TNF-α Induced HEK Blue Cellular Assay (secreted alkaline phosphatase expression, QUANTI-Blue). Type of assay: cell-based. Conditions: HEK Blue TNFα reporter cells, TNF-α 100 μg/ml, 24 hrs at 37° C., inhibition of secreted alkaline phosphatase. In outline:
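HEK Blue TNFα reporter cells (10,000/well) in DMEM with 10% FBS received compound ([…] to 0.5 nM final) and TNF-α at […] final for 24 h at 37° C. Secreted alkaline phosphatase read with QUANTI-Blue at 620 nm. IC50 came from a 4-parameter logistic fit after normalising to unstimulated and stimulated DMSO controls.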

Structures are written as SMILES. pIC50: −log10 of the molar value. Read-outs that look alike come from different tables or passages of the source.

T1 sequence (P01375 77-233 limits assumed): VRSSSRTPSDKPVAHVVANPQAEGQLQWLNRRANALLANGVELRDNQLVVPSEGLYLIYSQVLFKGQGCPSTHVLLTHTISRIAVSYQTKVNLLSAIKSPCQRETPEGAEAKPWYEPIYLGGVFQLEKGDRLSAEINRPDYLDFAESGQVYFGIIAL

With `[2H]C([2H])([2H])N1C(=O)c2cccc(OC(F)F)c2[C@H]2C[C@@H]1c1nc3ccc(C#CCCCN4CCN(C)CC4)cc3n12` [Example 133, (7R,14R)-1-(difluoromethoxy)-6-(methyl-d3)-11-(5-(4-methylpiperazin-1-yl)pent-1-yn-1-yl)-6,7-dihydro-7,14-methanobenzo[f]benzo[4,5]imidazo[1,2-a][1,4]diazocin-5(14H)-one], the pIC50 (read-out: IC50 value) is 6.00 to 7.00. Same read-out and setting: the same measure for `[2H]C([2H])([2H])N1C(=O)c2cccc(OC(F)F)c2[C@H]2C[C@@H]1c1nc3ccc(C#CCCN4CCN(C)CC4)cc3n12` [Example 134, (7R,14R)-1-(difluoromethoxy)-6-(methyl-d3)-11-(4-(4-methylpiperazin-1-yl)but-1-yn-1-yl)-6,7-dihydro-7,14-methanobenzo[f]benzo[4,5]imidazo[1,2-a][1,4]diazocin-5(14H)-one]: greater than 7.00. With `[2H]C([2H])([2H])N1C(=O)c2cccc(OC(F)F)c2[C@H]2C[C@@H]1c1nc3ccc(C#CCCN4CCC4)cc3n12` [Example 135, (7R,14R)-11-(4-(azetidin-1-yl)but-1-yn-1-yl)-1-(difluoromethoxy)-6-(methyl-d3)-6,7-dihydro-7,14-methanobenzo[f]benzo[4,5]imidazo[1,2-a][1,4]diazocin-5(14H)-one], the pIC50 (IC50 value) is greater than 7.00. With `[2H]C([2H])([2H])N1C(=O)c2cccc(OC(F)F)c2[C@H]2C[C@@H]1c1nc3ccc(C#CCCN4CCCC4)cc3n12` [Example 136, (7R,14R)-1-(difluoromethoxy)-6-(methyl-d3)-11-(4-(pyrrolidin-1-yl)but-1-yn-1-yl)-6,7-dihydro-7,14-methanobenzo[f]benzo[4,5]imidazo[1,2-a][1,4]diazocin-5(14H)-one], the pIC50 (read-out: IC50 value) was greater than 7.00. On the same count and under the same terms, the same measure for `[2H]C([2H])([2H])N1C(=O)c2cccc(OC(F)F)c2[C@H]2C[C@@H]1c1nc3ccc(C#CCC(=O)OC)cc3n12` [Example 138, methyl 4-((7R,14R)-1-(difluoromethoxy)-6-(methyl-d3)-5-oxo-5,6,7,14-tetrahydro-7,14-methanobenzo[f]benzo[4,5]imidazo[1,2-a][1,4]diazocin-11-yl)but-3-ynoate]: 4.52 to 5.00; for `[2H]C([2H])([2H])N1C(=O)c2cccc(OC(F)F)c2[C@H]2C[C@@H]1c1nc3ccc(C#CC4CC(C#N)C4)cc3n12` (stereo partly drawn) [Example 141, 3-(((7R,14R)-1-(difluoromethoxy)-6-(methyl-d3)-5-oxo-5,6,7,14-tetrahydro-7,14-methanobenzo[f]benzo[4,5]imidazo[1,2-a][1,4]diazocin-11-yl)ethynyl)cyclobutane-1-carbonitrile]: greater than 7.00.

Consider `[2H]C([2H])([2H])N1C(=O)c2cccc(OC(F)F)c2[C@H]2C[C@@H]1c1nc3ccc(C#C[C@H](C)COC)cc3n12` [Example 142, (7R,14R)-1-(difluoromethoxy)-11-((S)-4-methoxy-3-methylbut-1-yn-1-yl)-6-(methyl-d3)-6,7-dihydro-7,14-methanobenzo[f]benzo[4,5]imidazo[1,2-a][1,4]diazocin-5(14H)-one], for which, for the setting “read-out: IC50 value”, the pIC50 is greater than 7.00. The same measure, in the same setting: the same measure for `[2H]C([2H])([2H])N1C(=O)c2cccc(OC(F)F)c2[C@H]2C[C@@H]1c1nc3ccc(C#CCCN4CC(C)(O)C4)cc3n12` [Example 143, (7R,14R)-1-(difluoromethoxy)-11-(4-(3-hydroxy-3-methylazetidin-1-yl)but-1-yn-1-yl)-6-(methyl-d3)-6,7-dihydro-7,14-methanobenzo[f]benzo[4,5]imidazo[1,2-a][1,4]diazocin-5(14H)-one]: greater than 7.00; for `[2H]C([2H])([2H])N1C(=O)c2cccc(OC(F)F)c2[C@H]2C[C@@H]1c1nc3ccc(C#CCO)cc3n12` [Example 144, (7R,14R)-1-(difluoromethoxy)-11-(3-hydroxyprop-1-yn-1-yl)-6-(methyl-d3)-6,7-dihydro-7,14-methanobenzo[f]benzo[4,5]imidazo[1,2-a][1,4]diazocin-5(14H)-one]: 6.00 to 7.00; for `[2H]C([2H])([2H])N1C(=O)c2cccc(OC(F)F)c2[C@H]2C[C@@H]1c1nc3c(F)cc(C#CC4(C)COC4)cc3n12` [Example 145, (7R,14R)-1-(difluoromethoxy)-9-fluoro-6-(methyl-d3)-11-((3-methyloxetan-3-yl)ethynyl)-6,7-dihydro-7,14-methanobenzo[f]benzo[4,5]imidazo[1,2-a][1,4]diazocin-5(14H)-one]: greater than 7.00.

As for `[2H]C([2H])([2H])N1C(=O)c2cccc(OC(F)F)c2[C@H]2C[C@@H]1c1nc3ccc(C#CC4(C)COC4)c(F)c3n12` [Example 146, (7R,14R)-1-(difluoromethoxy)-12-fluoro-6-(methyl-d3)-11-((3-methyloxetan-3-yl)ethynyl)-6,7-dihydro-7,14-methanobenzo[f]benzo[4,5]imidazo[1,2-a][1,4]diazocin-5(14H)-one], under “read-out: IC50 value”, the pIC50 is 6.00 to 7.00. `[2H]C([2H])([2H])N1C(=O)c2cccc(OC(F)F)c2[C@H]2C[C@@H]1c1nc3ccc(C#C[C@@H](C)COC)cc3n12` [Example 147, (7R,14R)-1-(difluoromethoxy)-11-((R)-4-methoxy-3-methylbut-1-yn-1-yl)-6-(methyl-d3)-6,7-dihydro-7,14-methanobenzo[f]benzo[4,5]imidazo[1,2-a][1,4]diazocin-5(14H)-one]: the pIC50 (read-out: IC50 value) was greater than 7.00. For the compound `[2H]C([2H])([2H])N1C(=O)c2cccc(OC(F)F)c2[C@H]2C[C@@H]1c1nc3ccc(C#CC4CC(F)(F)C4)cc3n12` [Example 150, (7R,14R)-11-((3,3-difluorocyclobutyl)ethynyl)-1-(difluoromethoxy)-6-(methyl-d3)-6,7-dihydro-7,14-methanobenzo[f]benzo[4,5]imidazo[1,2-a][1,4]diazocin-5(14H)-one], the pIC50 (read-out: IC50 value) is greater than 7.00.

Regarding `[2H]C([2H])([2H])N1C(=O)c2cccc(OC(F)F)c2[C@H]2C[C@@H]1c1nc3ccc(C#CCCNC)cc3n12` [Example 151, (7R,14R)-1-(difluoromethoxy)-6-(methyl-d3)-11-(4-(methylamino)but-1-yn-1-yl)-6,7-dihydro-7,14-methanobenzo[f]benzo[4,5]imidazo[1,2-a][1,4]diazocin-5(14H)-one], the pIC50 (read-out: IC50 value) is 6.00 to 7.00. The same measure, in the same setting: the same measure for `[2H]C([2H])([2H])N1C(=O)c2cccc(OC(F)F)c2[C@H]2C[C@@H]1c1nc3ccc(C#CCCNCC)cc3n12` [Example 152, (7R,14R)-1-(difluoromethoxy)-11-(4-(ethylamino)but-1-yn-1-yl)-6-(methyl-d3)-6,7-dihydro-7,14-methanobenzo[f]benzo[4,5]imidazo[1,2-a][1,4]diazocin-5(14H)-one]: 6.00 to 7.00; for `[2H]C([2H])([2H])N1C(=O)c2cccc(OC(F)F)c2[C@H]2C[C@@H]1c1nc3ccc(C#CCCCNC)cc3n12` [Example 153, (7R,14R)-1-(difluoromethoxy)-6-(methyl-d3)-11-(5-(methylamino)pent-1-yn-1-yl)-6,7-dihydro-7,14-methanobenzo[f]benzo[4,5]imidazo[1,2-a][1,4]diazocin-5(14H)-one]: 6.00 to 7.00; for `[2H]C([2H])([2H])N1C(=O)c2cccc(OC(F)F)c2[C@H]2C[C@@H]1c1nc3ccc(C#CCCN4CC(C)(C#N)C4)cc3n12` [Example 154, 1-(4-((7R,14R)-1-(difluoromethoxy)-6-(methyl-d3)-5-oxo-5,6,7,14-tetrahydro-7,14-methanobenzo[f]benzo[4,5]imidazo[1,2-a][1,4]diazocin-11-yl)but-3-yn-1-yl)-3-methylazetidine-3-carbonitrile]: greater than 7.00.

Values taken from US20260365682A1, “MODULATORS OF TNF-ALPHA ACTIVITY” (Forward Therapeutics, Inc., priority 2022, published 2026).
